How the values were obtained:
MCF7 [1] = assay: Cytotoxicity against human MCF7 cells assessed as cell viability at 100 uM relative to control; assay type: functional; conditions: read-out: Activity
MDA-MB-231 [2] = assay: Cytotoxicity against human MDA-MB-231 cells assessed as cell viability at 100 uM relative to control; assay type: functional; conditions: read-out: Activity
MDA-MB-468 [3] = assay: Cytotoxicity against human MDA-MB-468 cells assessed as cell viability at 100 uM relative to control; assay type: functional; conditions: read-out: Activity
SK-BR-3 [4] = assay: Cytotoxicity against human SKBR3 cells assessed as cell viability at 100 uM relative to control; assay type: functional; conditions: read-out: Activity
T47D [5] = assay: Cytotoxicity against human T47D cells assessed as cell viability at 100 uM relative to control; assay type: functional; conditions: read-out: Activity
Caco-2 [6] = assay: Cytotoxicity against human Caco2 cells assessed as cell viability at 100 uM relative to control; assay type: functional; conditions: read-out: Activity
HCT-116 [7] = assay: Cytotoxicity against human HCT116 cells assessed as cell viability at 100 uM relative to control; assay type: functional; conditions: read-out: Activity
HT-29 [8] = assay: Cytotoxicity against human HT-29 cells assessed as cell viability at 100 uM relative to control; assay type: functional; conditions: read-out: Activity
SW48 [9] = assay: Cytotoxicity against human SW48 cells assessed as cell viability at 100 uM relative to control; assay type: functional; conditions: read-out: Activity
A549 [10] = assay: Cytotoxicity against human A549 cells assessed as cell viability at 100 uM relative to control; assay type: functional; conditions: read-out: Activity
NCI-H1299 [11] = assay: Cytotoxicity against human H1299 cells assessed as cell viability at 100 uM relative to control; assay type: functional; conditions: read-out: Activity
CNE [12] = assay: Cytotoxicity against human CNE1 cells assessed as cell viability at 100 uM relative to control; assay type: functional; conditions: read-out: Activity
[13] = Cytotoxicity against human HK1 cells assessed as cell viability at 100 uM relative to control; assay type: functional; conditions: HK-1, read-out: Activity
SUNE1 [14] = assay: Cytotoxicity against human SUNE1 cells assessed as cell viability at 100 uM relative to control; assay type: functional; conditions: read-out: Activity
SH-SY5Y [15] = assay: Cytotoxicity against human SH-SY5Y cells assessed as cell viability at 100 uM relative to control; assay type: functional; conditions: read-out: Activity
ASPC1 [16] = assay: Cytotoxicity against human AsPC1 cells assessed as cell viability at 100 uM relative to control; assay type: functional; conditions: read-out: Activity
BXPC-3 [17] = assay: Cytotoxicity against human BxPC3 cells assessed as cell viability at 100 uM relative to control; assay type: functional; conditions: read-out: Activity
SW1990 [18] = assay: Cytotoxicity against human SW1990 cells assessed as cell viability at 100 uM relative to control; assay type: functional; conditions: read-out: Activity
[19] = Cytotoxicity against human MCF10A cells assessed as cell viability at 100 uM relative to control; assay type: cell-based, MCF-10A; conditions: read-out: Activity
[20] = Cytotoxicity against human MRC5 cells assessed as cell viability at 100 uM relative to control; assay type: cell-based; conditions: read-out: Activity
MCF7 [21] = assay: Cytotoxicity against human MCF7 cells assessed as reduction in cell viability; assay type: functional, cell-based
MDA-MB-231 [22] = assay: Cytotoxicity against human MDA-MB-231 cells assessed as reduction in cell viability; assay type: functional, cell-based
MDA-MB-468 [23] = assay: Cytotoxicity against human MDA-MB-468 cells assessed as reduction in cell viability; assay type: functional, cell-based
SK-BR-3 [24] = assay: Cytotoxicity against human SKBR3 cells assessed as reduction in cell viability; assay type: functional, cell-based
T47D [25] = assay: Cytotoxicity against human T47D cells assessed as reduction in cell viability; assay type: functional, cell-based
Caco-2 [26] = assay: Cytotoxicity against human Caco2 cells assessed as reduction in cell viability; assay type: functional, cell-based
HCT-116 [27] = assay: Cytotoxicity against human HCT116 cells assessed as reduction in cell viability; assay type: functional, cell-based
HT-29 [28] = assay: Cytotoxicity against human HT-29 cells assessed as reduction in cell viability; assay type: functional, cell-based
SW48 [29] = assay: Cytotoxicity against human SW48 cells assessed as reduction in cell viability; assay type: functional, cell-based
A549 [30] = assay: Cytotoxicity against human A549 cells assessed as reduction in cell viability; assay type: functional, cell-based
NCI-H1299 [31] = assay: Cytotoxicity against human H1299 cells assessed as reduction in cell viability; assay type: functional, cell-based
CNE [32] = assay: Cytotoxicity against human CNE1 cells assessed as reduction in cell viability; assay type: functional, cell-based
[33] = Cytotoxicity against human HK1 cells assessed as reduction in cell viability; assay type: functional, cell-based; conditions: HK-1
SUNE1 [34] = assay: Cytotoxicity against human SUNE1 cells assessed as reduction in cell viability; assay type: functional, cell-based
SH-SY5Y [35] = assay: Cytotoxicity against human SH-SY5Y cells assessed as reduction in cell viability; assay type: functional, cell-based
ASPC1 [36] = assay: Cytotoxicity against human AsPC1 cells assessed as reduction in cell viability; assay type: functional, cell-based
BXPC-3 [37] = assay: Cytotoxicity against human BxPC3 cells assessed as reduction in cell viability; assay type: functional, cell-based
SW1990 [38] = assay: Cytotoxicity against human SW1990 cells assessed as reduction in cell viability; assay type: functional, cell-based
MCF-10A = assay: Cytotoxicity against human MCF10A cells assessed as reduction in cell viability; assay type: cell-based
MRC5 = assay: Cytotoxicity against human MRC5 cells assessed as reduction in cell viability; assay type: cell-based

| SMILES | viability at 100 µM (MCF7 [1]) [%] | viability at 100 µM (MDA-MB-231 [2]) [%] | viability at 100 µM (MDA-MB-468 [3]) [%] | viability at 100 µM (SK-BR-3 [4]) [%] | viability at 100 µM (T47D [5]) [%] | viability at 100 µM (Caco-2 [6]) [%] | viability at 100 µM (HCT-116 [7]) [%] | viability at 100 µM (HT-29 [8]) [%] | viability at 100 µM (SW48 [9]) [%] | viability at 100 µM (A549 [10]) [%] | viability at 100 µM (NCI-H1299 [11]) [%] | viability at 100 µM (CNE [12]) [%] | viability at 100 µM [13] [%] | viability at 100 µM (SUNE1 [14]) [%] | viability at 100 µM (SH-SY5Y [15]) [%] | viability at 100 µM (ASPC1 [16]) [%] | viability at 100 µM (BXPC-3 [17]) [%] | viability at 100 µM (SW1990 [18]) [%] | viability at 100 µM [19] [%] | viability at 100 µM [20] [%] | other results |
| --- | --- | --- | --- | --- | --- | --- | --- | --- | --- | --- | --- | --- | --- | --- | --- | --- | --- | --- | --- | --- | --- |
| O=[N+]([O-])c1ccc(NC(CO)CO)cc1C(F)(F)F | 49.7 | 65.7 | 98.7 | 79.4 | 71.2 | 96.1 | 86.8 | 110 | 78.9 | 61.9 | 72.3 | 100 | 92.8 | 104 | 70.8 | 87.3 | 108 | 71.5 | 102 | 32.8 | IC50 (MCF7 [21]): 88.1 µM; IC50 (MDA-MB-231 [22]): > 100 µM; IC50 (MDA-MB-468 [23]): > 100 µM; IC50 (SK-BR-3 [24]): > 100 µM; IC50 (T47D [25]): > 100 µM; IC50 (Caco-2 [26]): > 100 µM; IC50 (HCT-116 [27]): > 100 µM; IC50 (HT-29 [28]): > 100 µM; IC50 (SW48 [29]): > 100 µM; IC50 (A549 [30]): > 100 µM; IC50 (NCI-H1299 [31]): > 100 µM; IC50 (CNE [32]): > 100 µM; IC50 [33]: > 100 µM; IC50 (SUNE1 [34]): > 100 µM; IC50 (SH-SY5Y [35]): > 100 µM; IC50 (ASPC1 [36]): > 100 µM; IC50 (BXPC-3 [37]): > 100 µM; IC50 (SW1990 [38]): > 100 µM; IC50 (MCF-10A): > 100 µM; IC50 (MRC5): 41 µM |
| O=[N+]([O-])c1ccc(NC(CCl)CCl)c(C(F)(F)F)c1 | 10.5 | 31.8 | 20.4 | 55.6 | 24.3 | 9.5 | 24.5 | 45.3 | 26.5 | 37.1 | 38.1 | 12.4 | 61.4 | 38.6 | 21.6 | 40.2 | 23.2 | 28.6 | 47.5 | 22.2 | IC50 (MCF7 [21]): 12.1 µM; IC50 (MDA-MB-231 [22]): 42.4 µM; IC50 (MDA-MB-468 [23]): 52.1 µM; IC50 (SK-BR-3 [24]): > 100 µM; IC50 (T47D [25]): 34.7 µM; IC50 (Caco-2 [26]): 10.1 µM; IC50 (HCT-116 [27]): 33.1 µM; IC50 (HT-29 [28]): 92.1 µM; IC50 (SW48 [29]): 33.4 µM; IC50 (A549 [30]): 57.7 µM; IC50 (NCI-H1299 [31]): 49.1 µM; IC50 (CNE [32]): 15.3 µM; IC50 [33]: > 100 µM; IC50 (SUNE1 [34]): 55.1 µM; IC50 (SH-SY5Y [35]): 33.7 µM; IC50 (ASPC1 [36]): 85.1 µM; IC50 (BXPC-3 [37]): 52.1 µM; IC50 (SW1990 [38]): 33.3 µM; IC50 (MCF-10A): 81 µM; IC50 (MRC5): 31 µM |
| O=[N+]([O-])c1ccc(NC(CO)CO)c(C(F)(F)F)c1 | 45.7 | 93.1 | 93.2 | 75.2 | 59.1 | 101 | 84.9 | 84.2 | 61.8 | 99.6 | 93.1 | 82.5 | 90.4 | 52.4 | 74.7 | 84.7 | 109 | 72.4 | 88.8 | 74.9 | IC50 (MCF7 [21]): 88.3 µM; IC50 (MDA-MB-231 [22]): > 100 µM; IC50 (MDA-MB-468 [23]): > 100 µM; IC50 (SK-BR-3 [24]): > 100 µM; IC50 (T47D [25]): > 100 µM; IC50 (Caco-2 [26]): > 100 µM; IC50 (HCT-116 [27]): > 100 µM; IC50 (HT-29 [28]): > 100 µM; IC50 (SW48 [29]): > 100 µM; IC50 (A549 [30]): > 100 µM; IC50 (NCI-H1299 [31]): > 100 µM; IC50 (CNE [32]): > 100 µM; IC50 [33]: > 100 µM; IC50 (SUNE1 [34]): > 100 µM; IC50 (SH-SY5Y [35]): > 100 µM; IC50 (ASPC1 [36]): > 100 µM; IC50 (BXPC-3 [37]): > 100 µM; IC50 (SW1990 [38]): > 100 µM; IC50 (MCF-10A): > 100 µM; IC50 (MRC5): > 100 µM |
| O=[N+]([O-])c1ccc(NC(CCl)CCl)cc1C(F)(F)F | 20.5 | 57.4 | 58.6 | 52.7 | 33.2 | 20.9 | 45 | 38.4 | 29.1 | 27.8 | 43.7 | 32.6 | 59.7 | 44.9 | 30.6 | 58.7 | 56.5 | 36.7 | 59.7 | 22.1 | IC50 (MCF7 [21]): 33.1 µM; IC50 (MDA-MB-231 [22]): > 100 µM; IC50 (MDA-MB-468 [23]): > 100 µM; IC50 (SK-BR-3 [24]): > 100 µM; IC50 (T47D [25]): 64.1 µM; IC50 (Caco-2 [26]): 37.1 µM; IC50 (HCT-116 [27]): 83.8 µM; IC50 (HT-29 [28]): 63.1 µM; IC50 (SW48 [29]): 43.4 µM; IC50 (A549 [30]): 70.4 µM; IC50 (NCI-H1299 [31]): > 100 µM; IC50 (CNE [32]): 33.2 µM; IC50 [33]: > 100 µM; IC50 (SUNE1 [34]): 93.1 µM; IC50 (SH-SY5Y [35]): 56.4 µM; IC50 (ASPC1 [36]): > 100 µM; IC50 (BXPC-3 [37]): > 100 µM; IC50 (SW1990 [38]): 55.8 µM; IC50 (MCF-10A): > 100 µM; IC50 (MRC5): 33.9 µM |
